Measurements as given in patent publication US20260021092A1, “STRUCTURE-BASED DESIGN OF A NOVEL CLASS OF DRUGS FOR NEURODEGENERATIVE DISEASE” (The Regents of the University of California, priority 2022, published 2026).

Experiments:
[1] = molecular target: T1, alpha-synuclein aggregates (Homo sapiens, UniProt P37840); assay: Alpha-synuclein aggregation in DDP1 C. elegans; type: in vivo; settings: for soluble versus insoluble alpha-synuclein in worm homogenate by Western blot: 100 μM on plates; for number of alpha-synuclein aggregates in the head region: 100 μM on plates from L1, day 6 of adulthood
T1 construct: host or cells: transgenic C. elegans strain DDP1 (unc-54 promoter)
Description: The DDP1 C. elegans strain overexpresses alpha-synuclein fused with yellow fluorescent protein (YFP) and cyan fluorescent protein (CFP)^22,23. FRET-positive fluorescent alpha-synuclein aggregates can then be visualized and quantified in the adult worms. […] PBS was used as a vehicle control. At day 6 of adulthood, the worms were visualized, and the number of aggregates were quantified by fluorescent microscopy. […] Treated worms were also homogenized for protein analysis by Western blot. Homogenate for each experimental condition was separated into insoluble pellet fractions (P) and soluble supernatant (S) fractions. For untreated worm homogenate, the majority of alpha-synuclein is found in the insoluble pellet.
For C. elegans experiments, the same protocol was used, except following the treatment period worms were harvested, flash frozen, then homogenized for protein extraction. The membrane was washed with TBST overnight before repeating the Western blot analysis for beta-actin (primary antibody anti-beta-actin (C4) (Santa Cruz Biotechnology, cat #sc-47778, lot #J1119; 1:500 dilution in 5% milk/TBST); horseradish peroxidase-conjugated secondary antibody (goat polyclonal anti-mouse IgG (Abcam; cat #ab205719, lot #GR3271082-2); 1:5000 dilution in 5% milk/TBST).
The DDP1 (uonExl [unc-54::αSyn::CFP+unc-54::αSyn::YFP(Venus)]) strain was acquired from the Caenorhabditis Genetics Center (CGC) and used for experiments. C. elegans were grown and maintained using standard conditions. Worms were synchronized using hypochlorite bleaching, hatched ovemight in M9 media (5 g/l NaCl, 6 g/l Na2HPO4, 3 g/l KH2PO4, […]) at 17° C., then cultured on plates with nematode growth medium (NGI; 17 g/l agar, 2.5 g/l peptone, 3 g/l NaCl 1 mM CaCl2, 1 mM MgSO4, 25 mM KH2PO4 pH 6, 5 μg/ml cholesterol) seeded with OP50 E. coli. Strains were maintained at 17° C. […] Treatment plates were then seeded with heat treated OP50 (30 min at 65° C.), according to the “NGM dead” method as previously published^36. Synchronized L1 worms were then added to the treatment plates and grown for 7 days. PBS was used as a control condition. 75 μM FUDR was added on the third day of growth. For imaging, worms were mounted onto 5% agar pads on glass slides, immobilized with 1% NaN3 solution, and imaged by fluorescent microscopy (GFP channel) using a ZEISS Axio Observer D1 fluorescence microscope. Alpha-synuclein aggregates in the head region were quantified.

[2] = Brain penetration in mice (LC-MS/MRM of plasma and brain); type: in vivo, C57BL/6J mice; settings: 0.5 mg/kg tail vein injection, 1 hour after dosing, range of n=3; for concentration at 1 h: C57BL/6J, mouse, plasma, intravenous
Description: The compounds were administered by tail vein injection at a dose of 0.5 mg/kg of body weight to C57BL/6J mice (n=3 for each compound). […] To detect and quantify the drugs we used a sensitive, selective, and specific liquid chromatographic/tandem mass spectrometric multiple reaction monitoring (LC-MS/MRM) assay. The sample extraction protocol for plasma and brain was optimized with spiking experiments in which the authentic compounds were added to plasma and brain from drug-naive mice. […] Blood was collected by cardiac puncture and plasma was recovered as the supernatant after centrifugation (3000×g, 10 m) and stored frozen. Brains were collected by standard dissection and immediately frozen. To measure the average drug concentrations across the entire brains each left hemisphere (average wet weight 250 mg) was processed. The samples were spiked with the internal standard (IS, CNS-11F, 15 pmol in 15 μL of acetonitrile) and homogenized with a probe sonicator (Kontes microsonic cell disrupter, 30 sec) after the addition of acetonitrile/water (4:1, v/v, 2500 μL). The homogenates were divided evenly into three polypropylene microcentrifuge tubes (met) for triplicate measurements of each sample. Following centrifugation (16,100g, 5 min), the supernatants were transferred to clean mets and dried in a vacuum centrifuge. The pellets were treated with acetonitrile (25 μL) with vigorous mixing, followed by water (25 μL) with more vigorous mixing, followed by more water (50 μL) for a total volume of 100 μL. The samples were mixed again, centrifuged (16,100g, 5 min) and the supernatants were transferred to HPLC injector vials. […] These samples were processed as described above. Plasma samples (50 μL, in duplicate for each mouse) were spiked with the internal standard (IS, CNS-11F, 5 pmol in 5 μL of acetonitrile), and vigorously mixed after the addition of acetonitrile (500 μL). Following centrifugation (16,100g, 5 min), the supernatants were transferred to clean mcts and dried in a vacuum centrifuge. […] The effluent from the column was directed to an electrospray ion source (Agilent Jet Stream) connected to a triple quadrupole mass spectrometer (Agilent 6460) operating in the positive ion tandem mass spectrometric multiple reaction monitoring (MRM) mode in which the intensity of the transition of preselected parent ions to preselected fragment ions was recorded after signal optimization (collision energy, fragmentor voltage and collision cell accelerator voltage) with instrument manufacturer-supplied software (Mass Hunter). […] Peak areas were integrated and recorded, and a curve was constructed from the data obtained from the standards in which the ratio of drug peak area/IS peak area was plotted against the amount of drug in each sample. […]

[3] = molecular target: T2, MSA brain-derived alpha-synuclein fibrils (Homo sapiens, UniProt P37840); assay: EM quantification of MSA brain-derived alpha-synuclein fibrils; type: biochemical; settings: incubated for 3 days, compared to control
T2 construct: Extraction of sarkosyl-insoluble alpha-synuclein fibrils from neuropathologically confirmed brain samples of patients diagnosed with MSA; from tissue; host or cells: post-mortem MSA patient brain
Description: Post-mortem alpha-synuclein fibrils were extracted and purified from the brain of a patient with MSA. The presence of fibrils in the extract was confirmed by electron microscopy (FIG. 3a). […] As with the recombinant fibrils, we next aimed to quantitatively assess brain-derived fibril disaggregation by EM. Compounds were incubated with MSA fibrils for 3 days, and fibrils were quantified by EM daily, with 10-15 images taken per experimental replicate.
For all transmission electron microscopy (TEM), 6 μL of sample were added onto 400 mesh Formvar Carbon film copper mesh grids (Electron Microscopy Sciences), then incubated for four minutes. 6 μL of 2% uranyl acetate solution was then used to stain the grids. After 2 minutes, excess solution was blotted off and grids were left to dry for a minimum of 30 minutes. TEM images were taken on a Tecnai 12 transmission electron microscope. For quantitation of fibrils, n=20 TEM images were taken per experimental condition from random points throughout the grid. Fibril counts were manually quantified per image in a blinded fashion.
Compounds were incubated quiescently with fibril samples (both recombinant and brain-derived) for 72 hours at 37° C. […]

Row | Structure (SMILES) | soluble versus insoluble alpha-synuclein in worm homogenate by Western blot [1] | number of alpha-synuclein aggregates in the head region [1] | concentration in brain tissue [2] | concentration at 1 h [2] | average number of imaged MSA fibrils [3]
1 | Cc1cccc(C)c1NC(=O)Cn1nc(Cc2ccccc2)c2ccccc2c1=O [CNS-11g, 2-(4-benzyl-1-oxophthalazin-2-yl)-N-(2,6-dimethylphenyl)acetamide] | solubilization of the alpha-synuclein | reduction of total aggregates | 4.2-26.1 ng/g of brain | 10.4 to 58.8 nM | reduction in average number of imaged fibrils
2 | Cc1cc(C)c(NC(=O)Cn2nc3c4c(cccc4c2=O)-c2ccccc2-3)c(C)c1 [CNS-11, N-mesityl-2-(3-oxoindeno[1,2,3-de]phthalazin-2(3H)-yl)acetamide] | solubilization of the alpha-synuclein | reduction of total aggregates | 6.9-21.5 ng/g of brain | 5 to 28.4 nM | reduction in average number of imaged fibrils
